Patent US8389552B2, “(S)-6-(2-(4-(cyclobutylsulfonyl)-1H-imidazol-1-yl)-3-cyclopentylpropanamido)nicotinic acid useful as a glucokinase activator” (Pfizer Inc., priority 2009, dated 2013)

Target: T1, Full-length glucokinase (beta cell isoform) (Homo sapiens, UniProt P35557)
T1 construct: Full-length glucokinase (beta cell isoform) was His-tagged at N-terminus; His tag (N); made in house; host or cells: E. coli BL21(DE3), pBCGK vector
T1 sequence (P35557 1-465): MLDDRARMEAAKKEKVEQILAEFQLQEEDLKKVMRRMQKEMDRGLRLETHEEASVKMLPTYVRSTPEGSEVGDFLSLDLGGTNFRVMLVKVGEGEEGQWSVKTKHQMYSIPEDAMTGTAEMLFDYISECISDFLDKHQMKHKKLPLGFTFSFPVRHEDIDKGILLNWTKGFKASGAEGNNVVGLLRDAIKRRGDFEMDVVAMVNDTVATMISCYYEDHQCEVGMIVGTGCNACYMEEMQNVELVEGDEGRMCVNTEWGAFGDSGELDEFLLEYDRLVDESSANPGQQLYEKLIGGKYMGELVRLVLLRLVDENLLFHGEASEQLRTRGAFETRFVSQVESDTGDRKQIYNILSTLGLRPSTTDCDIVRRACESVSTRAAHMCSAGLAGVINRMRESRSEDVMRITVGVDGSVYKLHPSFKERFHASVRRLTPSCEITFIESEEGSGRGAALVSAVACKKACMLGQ
Test: Glucokinase activation assay (PK/LDH-coupled, NADH depletion at 340 nm)
Type: biochemical
Conditions: 5 mM glucose, single value or range where N>1; for EC50: 2.5 mM ATP, pH 7.1, room temperature, read-out: EC50; for Emax: % max activation = (Va/Vo−1)×100 from fit, pH 7.1, read-out: Maximum Activation (%)
Method: Full-length glucokinase (beta cell isoform) was His-tagged at N-terminus and purified by a Ni column followed by size exclusion chromatography. A 320 mL column was packed in house using Superdex75 (Amersham Pharmacia, Carlsbad, Calif.) preparation grade resin. Glucose was obtained from Calbiochem (San Diego, Calif.) and other reagents were purchased from Sigma-Aldrich (St. Louis, Mo.).
All assays were performed in a Corning 384-well plate using Spectramax PLUS spectrophotometer (Molecular Devices, Sunnyvale, Calif.) at room temperature. The final assay volume was 40 ∥L. The buffer conditions used in this assay were as follows: 50 mM HEPES, 5 mM glucose, 2.5 mM ATP, 3.5 mM MgCl2, 0.7 mM NADH, 2 mM dithiothreitol, 1 unit/mL pyruvate kinase/lactate dehydrogenase (PK/LDH), 0.2 mM phosphoenolpyruvate, and 25 mM KCl. The buffer pH was 7.1. The test compound in dimethylsulfoxide solution was added to the buffer and mixed by a plate shaker for 7.5 minutes. The final concentration of dimethylsulfoxide introduced into the assay was 0.25%.
Glucokinase was added to the buffer mixture to initiate the reaction in the presence and absence of compound. The reaction was monitored by absorbance at 340 nm due to the depletion of NADH. The initial reaction velocity was measured by the slope of a linear time course of 0-300 seconds. The percentage of maximum activation was calculated by the following equation: % Maximum Activation=(Va/Vo−1)×100; wherein each of Va and Vo is defined as the initial reaction velocity in the presence and absence of the tested compound, respectively.
The glucokinase activities were measured as a function of compound concentrations.

Row | SMILES | EC50 [µM] | Emax [%]
1 | CC(C)S(=O)(=O)c1cnn([C@@H](CC2CCCC2)C(=O)Nc2ncccn2)c1 [Example 5, (S)-3-cyclopentyl-2-(4-(isopropylsulfonyl)-1H-pyrazol-1-yl)-N-(pyrimidin-2-yl)propanamide] | > 100 | –
2 | Cc1ccc(NC(=O)[C@H](CC2CCCC2)n2cc(C(F)(F)F)nc2C)nc1 [Example 91, (S)-3-cyclopentyl-2-(2-methyl-4-(trifluoromethyl)-1H-imidazol-1-yl)-N-(5-methylpyridin-2-yl)propanamide] | 0.4 | 120
3 | Cn1ccc(NC(=O)[C@H](CC2CCOCC2)n2cnc(C(F)(F)F)c2)n1 [Example 76, (S)—N-(1-methyl-1H-pyrazol-3-yl)-3-(tetrahydro-2H-pyran-4-yl)-2-(4-(trifluoromethyl)-1H-imidazol-1-yl)propanamide] | 18 | 138
4 | CC(C)S(=O)(=O)c1cnn([C@@H](CC2CCCC2)C(=O)Nc2ccccn2)c1 [Example 16, (S)-3-cyclopentyl-2-(4-(isopropylsulfonyl)-1H-pyrazol-1-yl)-N-(pyridin-2-yl)propanamide] | 1.9 | 48
5 | CC(C)S(=O)(=O)c1cnn([C@@H](CC2CCCC2)C(=O)Nc2ccon2)c1 [Example 15, (S)-3-cyclopentyl-2-(4-(isopropylsulfonyl)-1H-pyrazol-1-yl)-N-(isoxazol-3-yl)propanamide] | 60 | 89
6 | O=C(Nc1ccc(CP(=O)(O)O)cn1)[C@H](CC1CCCC1)n1cnc(C(F)(F)F)c1 [Example 60, (S)-(6-(3-cyclopentyl-2-(4-(trifluoromethyl)-1H-imidazol-1-yl)propanamido)pyridin-3-yl)methylphosphonic acid] | 4.6 | 112
7 | CN(C)C(=O)c1cnn([C@@H](CC2CCCC2)C(=O)Nc2ccn(C)n2)c1 [Example 71, (S)-1-(3-cyclopentyl-1-(1-methyl-1H-pyrazol-3-ylamino)-1-oxopropan-2-yl)-N,N-dimethyl-1H-pyrazole-4-carboxamide] | > 30 | –
8 | CCn1ncc(NC(=O)[C@H](CC2CCCC2)n2cnc(C(F)(F)F)c2)n1 [Example 49, (S)-3-cyclopentyl-N-(2-ethyl-2H-[1,2,3]triazol-4-yl)-2-(4-trifluoromethyl-1H-imidazol-1-yl)propanamide] | 2.2 | 168
9 | CS(=O)(=O)c1cnn([C@@H](CC2CCCC2)C(=O)Nc2ccc(C(F)(F)F)cn2)c1 [Example 10, (S)-3-cyclopentyl-2-(4-(methylsulfonyl)-1H-pyrazol-1-yl)-N-(5-(trifluoromethyl)pyridin-2-yl)propanamide] | 4.8 | 56
10 | CC(C)S(=O)(=O)c1cnn([C@@H](CC2CCCC2)C(=O)Nc2ccncn2)c1 [Example 4, (S)-3-cyclopentyl-2-(4-(isopropylsulfonyl)-1H-pyrazol-1-yl)-N-(pyrimidin-4-yl)propanamide] | 0.9 to 2.2 | 57 to 90
11 | CC(C)(O)C(=O)Nc1ccc(NC(=O)[C@H](CC2CCCC2)n2cnc(C(F)(F)F)c2)nc1 [Example 67, (S)-3-Cyclopentyl-N-[5-(2-hydroxy-2-methyl-propionylamino)-pyridin-2-yl]-2-(4-trifluoromethyl-imidazol-1-yl)-propionamide] | 2.8 | 104

Next, values leading:

Row | EC50 [µM] | Emax [%] | SMILES
12 | 2.3 | 160 | CS(=O)(=O)c1cn([C@@H](CC2CCCC2)C(=O)Nc2ccc(C(=O)O)cn2)cn1 [Example 38, (S)-6-(3-cyclopentyl-2-(4-(methylsulfonyl)-1H-imidazol-1-yl)propanamido)nicotinic acid]
13 | 23 | 125 | Cn1ccc(NC(=O)[C@H](CC2CCCC2)n2cnc(S(C)(=O)=O)c2)n1 [Example 36, (S)-3-cyclopentyl-N-(1-methyl-1H-pyrazol-3-yl)-2-(4-(methylsulfonyl)-1H-imidazol-1-yl)propanamide]
14 | 0.3 to 0.6 | 38 to 50 | Cc1ccc(NC(=O)[C@H](CC2CCCC2)n2cc(S(=O)(=O)C(C)C)cn2)nc1 [Example 1, (S)-3-cyclopentyl-2-(4-(isopropylsulfonyl)-1H-pyrazol-1-yl)-N-(5-methylpyridin-2-yl)propanamide]
15 | 7.2 | 80 | CCS(=O)(=O)c1cnn([C@@H](CC2CCCC2)C(=O)Nc2ccn(C)n2)c1 [Example 20, (S)-3-cyclopentyl-2-(4-(ethylsulfonyl)-1H-pyrazol-1-yl)-N-(1-methyl-1H-pyrazol-3-yl)propanamide]
16 | 16 | 136 | CCS(=O)(=O)c1cn([C@@H](CC2CCCC2)C(=O)Nc2cnc(C)cn2)cn1 [Example 33, (S)-3-cyclopentyl-2-(4-(ethylsulfonyl)-1H-imidazol-1-yl)-N-(5-methylpyrazin-2-yl)propanamide]
17 | 9 to 16.5 | 84 to 90 | CC(C)S(=O)(=O)c1cnn([C@@H](CC2CCCC2)C(=O)Nc2cnccn2)c1 [Example 2, (S)-3-cyclopentyl-2-(4-(isopropylsulfonyl)-1H-pyrazol-1-yl)-N-(pyrazin-2-yl)propanamide]
18 | 55 | 174 | Cn1ccc(NC(=O)[C@H](CC2CCCC2)n2cc(S(C)(=O)=O)cn2)n1 [Example 9, (S)-3-cyclopentyl-N-(1-methyl-1H-pyrazol-3-yl)-2-(4-(methylsulfonyl)-1H-pyrazol-1-yl)propanamide]
19 | 2 | 161 | Cc1cnc(NC(=O)[C@H](CC2CCCC2)n2cnc(C(F)(F)F)c2)cn1 [Example 45, (S)-3-cyclopentyl-N-(5-methylpyrazin-2-yl)-2-(4-(trifluoromethyl)-1H-imidazol-1-yl)propanamide]
20 | 3.9 | 116 | Cc1ccc(NC(=O)[C@H](CC2CCCC2)n2cnc(S(C)(=O)=O)n2)nc1 [Example 25, (S)-3-cyclopentyl-N-(5-methylpyridin-2-yl)-2-(3-(methylsulfonyl)-1H-1,2,4-triazol-1-yl)propanamide]
21 | 11 | 122 | Cc1cnc(NC(=O)[C@H](CC2CCCC2)n2cc(S(C)(=O)=O)cn2)cn1 [Example 14, (S)-3-cyclopentyl-N-(5-methylpyrazin-2-yl)-2-(4-(methylsulfonyl)-1H-pyrazol-1-yl)propanamide]
22 | 10 | 100 | Cc1cnc(NC(=O)[C@H](CC2CCCC2)n2cnc(S(=O)(=O)C(C)C)c2)cn1 [Example 30, (S)-3-cyclopentyl-2-(4-(isopropylsulfonyl)-1H-imidazol-1-yl)-N-(5-methylpyrazin-2-yl)propanamide]
23 | 3.8 | 100 | Cc1ccc(NC(=O)[C@H](CC2CCCC2)n2cc(S(C)(=O)=O)cn2)nc1 [Example 8, (S)-3-cyclopentyl-N-(5-methylpyridin-2-yl)-2-(4-(methylsulfonyl)-1H-pyrazol-1-yl)propanamide]
24 | 6.7 to 8.8 | 90 to 113 | CS(=O)(=O)c1ccc(NC(=O)[C@H](CC2CCCC2)n2cnc(C(F)(F)F)c2)nc1 [Example 51, (S)-3-cyclopentyl-N-[5-(methylsulfonyl)pyridin-2-yl]-2-[4-(trifluoromethyl)-1H-imidazol-1-yl]propanamide]
25 | > 100 | – | Cc1cnc(NC(=O)[C@H](CC2CCCC2)n2cc(C(=O)N(C)C)cn2)cn1 [Example 73, (S)-1-(3-cyclopentyl-1-(5-methylpyrazin-2-ylamino)-1-oxopropan-2-yl)-N,N-dimethyl-1H-pyrazole-4-carboxamide]
26 | 22 | 120 | Cc1cnc(NC(=O)[C@H](CC2CCCC2)n2cnc(S(C)(=O)=O)n2)cn1 [Example 27, (S)-3-cyclopentyl-N-(5-methylpyrazin-2-yl)-2-(3-(methylsulfonyl)-1H-1,2,4-triazol-1-yl)propanamide]
27 | 11 | 125 | CCS(=O)(=O)c1cn([C@@H](CC2CCCC2)C(=O)Nc2ccn(C)n2)cn1 [Example 31, (S)-3-cyclopentyl-2-(4-(ethylsulfonyl)-1H-imidazol-1-yl)-N-(1-methyl-1H-pyrazol-3-yl)propanamide]
